Source: US20100003217A1, “Compounds and Pharmaceutical Compositions for the Treatment of Viral Infections” (priority 2008, published 2010)

System: Huh-7 cells
Experiment: Metabolic disposition of [^14C]-Compound 1 and [^14C]-2′-C-methyl guanosine in Huh-7 cells (incubation medium, cellular extracts, nucleotide levels)
Format: in vitro ADME, human
Details: for 2′-C-methyl guanosine nucleotide levels in cellular extracts / Major metabolites observed in cellular extracts (% of total radioactivity) / AUC (area under the concentration-time curve) of Compound 7 levels: Huh7; for AUC (area under the concentration-time curve) of Compound 7 levels: 0-72 h
Procedure: Huh-7 cells: Confluent monolayers of Huh-7 cells were dispersed using trypsin-EDTA, rinsed and pelleted by centrifugation at 1,000 rpm (Beckman, Model Allegra 6R). Cells were resuspended at 0.2, 0.3 and 0.4×10^6 cells/mL of medium (DMEM supplemented with 1% pyruvate, 10% FBS, 0.5% penicillin-streptomycin, 1% L-glutamine, 1% non-essential amino acids and 22 mM HEPES). Multi-well collagen I-coated plates (rat tail collagen type I; 6-well) were then seeded by addition of 2.0 mL of cell suspension to achieve final cell density of 0.4, 0.6 and 0.8×10^6 cells/well and placed in an incubator at 37° C. overnight to allow cells to attach and acclimatize to culture and the medium. Duplicate plates were prepared with the same cell density for cell number determination at each time point.
Huh-7 incubations were conducted in a final volume of 2.0 mL Huh7 culture medium/well ([…]). Culture medium from overnight incubation of cells was removed and replaced with fresh culture medium, pre-warmed to 37° C. containing [^14C]-Compound 1 or [^14C]-2′-C-methyl guanosine as described above for primary hepatocytes. After 24, 48 and 72 hours, 0.5-1.0 mL of incubation medium was removed and stored at −20° C. until analysis (described below). The remaining medium was discarded and cell monolayers processed and extracted as described above.
Preliminary identification of putative metabolites was conducted by comparing the retention time of observed metabolites in incubation medium and cellular extracts with retention times obtained with chemically synthesized standards using the chromatography conditions described below. Further identification of 2′-C-methyl guanosine nucleotides (mono-, di- and triphosphate) was carried out by incubating cellular extract samples with alkaline phosphatase (10 units for 60 min at 37° C.) and comparing the HPLC retention times of the resulting nucleosides with that of authentic 2′-C-methyl guanosine.
Cellular extracts were prepared by centrifugation at 16,000 RCF using an Eppendorf microcentrifuge (Eppendorf, Model 5415D) for 10 min to remove cellular debris. An aliquot of 5-10 μL of the supernatant was added to 5 mL of EcoLite™ (MP, Irvine, Calif.) liquid scintillation cocktail and radioactivity measured by liquid scintillation counting (LSC) using a Beckman Coulter LS6500 multipurpose liquid scintillation counter (Beckman Instruments, Fullerton, Calif.). The remaining sample was then dried using a Labconco refrigerated centrivap concentrator (Labconco, Kansas City, Mo.). Dry extracts were reconstituted in 120 μL of HPLC-grade water and centrifuged at 16,000 RCF using an Eppendorf microcentrifuge for 10 min. Prior to HPLC analysis (described below), radioactivity of the concentrated extracts was measured by LSC using 5 μL aliquots. Extraction recovery was then determined by comparing total radioactivity in extracts before and after drying. The remaining extract was then analyzed by HPLC with online radioactivity detection using a Flow Scintillation Analyzer Radiomatic™ 515TR. Radioactivity in the separated components was quantified by integrating the peaks using Flo-One™ Software (Perkin Elmer Life Sciences). Samples with poor recovery (<85%) were re-analyzed when possible.
Incubation medium samples were thawed at room temperature, vortexed and centrifuged at 16,000 RCF using an Eppendorf microcentrifuge. An aliquot of 10 μL was added to 5 mL of EcoLite™ (MP, Irvine, Calif.) liquid scintillation cocktail and radioactivity measured by LSC using a Beckman Coulter LS6500 multipurpose liquid scintillation counter (Beckman Instruments, Fullerton, Calif.). Samples (50-100 μL) were then analyzed by HPLC (described below) with online radioactivity detection using a Flow Scintillation Analyzer Radiomatic™ 515TR. Radioactivity in the separated components was quantified by integrating the peaks using Flo-One™ Software (Perkin Elmer Life Sciences). Samples with poor recovery (<85%) were re-analyzed when possible. […]

[1] = 10 μM [^14C]-2′-C-methyl guanosine, 0 h, n = 1
[2] = 10 μM [^14C]-2′-C-methyl guanosine, 24 h
[3] = 10 μM [^14C]-2′-C-methyl guanosine, 24 h, n = 1
[4] = 10 μM [^14C]-2′-C-methyl guanosine, 48 h
[5] = 10 μM [^14C]-2′-C-methyl guanosine, 48 h, n = 1
[6] = 10 μM [^14C]-2′-C-methyl guanosine, 72 h
[7] = 10 μM [^14C]-2′-C-methyl guanosine, 72 h, n = 1
[8] = 10 μM [^14C]-Compound 1, 0 h, replicate 1 of n = 2
[9] = 10 μM [^14C]-Compound 1, 0 h, replicate 2 of n = 2
[10] = 10 μM [^14C]-Compound 1, 24 h, first series
[11] = 10 μM [^14C]-Compound 1, 24 h, replicate 1 of n = 2
[12] = 10 μM [^14C]-Compound 1, 24 h, replicate 2 of n = 2
[13] = 10 μM [^14C]-Compound 1, 24 h, second series
[14] = 10 μM [^14C]-Compound 1, 48 h, first series
[15] = 10 μM [^14C]-Compound 1, 48 h, replicate 1 of n = 2
[16] = 10 μM [^14C]-Compound 1, 48 h, replicate 2 of n = 2
[17] = 10 μM [^14C]-Compound 1, 48 h, second series
[18] = 10 μM [^14C]-Compound 1, 72 h, first series
[19] = 10 μM [^14C]-Compound 1, 72 h, replicate 1 of n = 2
[20] = 10 μM [^14C]-Compound 1, 72 h, replicate 2 of n = 2
[21] = 10 μM [^14C]-Compound 1, 72 h, second series

| 2′-C-methyl guanosine nucleotide levels in cellular extracts [1] | Major metabolites observed in cellular extracts (% of total radioactivity) [4] | 2′-C-methyl guanosine nucleotide levels in cellular extracts [8] | 2′-C-methyl guanosine nucleotide levels in cellular extracts [9] | 2′-C-methyl guanosine nucleotide levels in cellular extracts [11] | 2′-C-methyl guanosine nucleotide levels in cellular extracts [12] | Major metabolites observed in cellular extracts (% of total radioactivity) [13] | Major metabolites observed in cellular extracts (% of total radioactivity) [14] | 2′-C-methyl guanosine nucleotide levels in cellular extracts [15] | 2′-C-methyl guanosine nucleotide levels in cellular extracts [16] | Major metabolites observed in cellular extracts (% of total radioactivity) [17] | Major metabolites observed in cellular extracts (% of total radioactivity) [18] | 2′-C-methyl guanosine nucleotide levels in cellular extracts [19] | 2′-C-methyl guanosine nucleotide levels in cellular extracts [20] | Structure (SMILES) | Major metabolites observed in cellular extracts (% of total radioactivity) [2] | 2′-C-methyl guanosine nucleotide levels in cellular extracts [3] | 2′-C-methyl guanosine nucleotide levels in cellular extracts [5] | Major metabolites observed in cellular extracts (% of total radioactivity) [6] | 2′-C-methyl guanosine nucleotide levels in cellular extracts [7] | Major metabolites observed in cellular extracts (% of total radioactivity) [10] | other results |
| --- | --- | --- | --- | --- | --- | --- | --- | --- | --- | --- | --- | --- | --- | --- | --- | --- | --- | --- | --- | --- | --- |
| 0 pmol/million cells | 3.56 % of total radioactivity | 0 pmol/million cells | 0 pmol/million cells | 2.20 pmol/million cells | 0 pmol/million cells | 7.55 % of total radioactivity | 6.14 % of total radioactivity | 1.60 pmol/million cells | 1.40 pmol/million cells | 6.42 % of total radioactivity | 6.86 % of total radioactivity | 1.60 pmol/million cells | 1.10 pmol/million cells | C[C@@]1(O)[C@H](O)[C@@H](COP(=O)(O)OP(=O)(O)O)O[C@H]1n1cnc2c(=O)[nH]c(N)nc21 [Compound 6, [(2R)-2-methyl-β-D-ribofuranosyl]guanine 5′-diphosphate] | BLD (BLD = below limit of detection (30 DPM)) | BLD (BLD = below limit of detection (0.02 pmol/million cells)) | BLD (BLD = below limit of detection (0.02 pmol/million cells)) | BLD (BLD = below limit of detection (30 DPM)) | BLD (BLD = below limit of detection (0.02 pmol/million cells)) | BLD (BLD = below limit of detection (30 DPM)) | Major metabolites observed in cellular extracts (% of total radioactivity) [21]: 8.44 % of total radioactivity |
| 0 pmol/million cells | 7.18 % of total radioactivity | 0 pmol/million cells | 0 pmol/million cells | 8.60 pmol/million cells | 21.3 pmol/million cells | 71.8 % of total radioactivity | 71.5 % of total radioactivity | 16.1 pmol/million cells | 15.2 pmol/million cells | 59.3 % of total radioactivity | 72.1 % of total radioactivity | 11.1 pmol/million cells | 13.3 pmol/million cells | C[C@@]1(O)[C@H](O)[C@@H](COP(=O)(O)OP(=O)(O)OP(=O)(O)O)O[C@H]1n1cnc2c(=O)[nH]c(N)nc21 [Compound 7, [(2R)-2-methyl-β-D-ribofuranosyl]guanine 5′-triphosphate] | 10.5 % of total radioactivity | 3.10 pmol/million cells | 1.40 pmol/million cells | 10.4 % of total radioactivity | 1.60 pmol/million cells | 59.7 % of total radioactivity | AUC (area under the concentration-time curve) of Compound 7 levels (10 μM [^14C]-2′-C-methyl guanosine, n = 1): 120 pmol * hr/million cells; AUC (area under the concentration-time curve) of Compound 7 levels (10 μM [^14C]-Compound 1, replicate 1 of n = 2): 726 pmol * hr/million cells; AUC (area under the concentration-time curve) of Compound 7 levels (10 μM [^14C]-Compound 1, replicate 2 of n = 2): 1,020 pmol * hr/million cells; Major metabolites observed in cellular extracts (% of total radioactivity) [21]: 69.6 % of total radioactivity; Compound 7 AUC0-72h (Huh7 cells (n=1), [^14C]-2′-C-methyl guanosine): 120 pmol*h/million cells; Compound 7 AUC0-72h (Huh7 cells (n=2), [^14C]-Compound 1): 873 pmol*h/million cells; Compound 7 maximum concentration (Huh7 cells, [^14C]-2′-C-methyl guanosine, at 24 hours): 3 pmol/million cells; Maximum Compound 7 levels (Huh7 cells, [^14C]-Compound 1, at 48 hours): 16 pmol/million cells; % of total radioactivity in cellular extracts (Huh7 cells, up to 72 hours after [^14C]-Compound 1 incubation): 83-93%; Levels of Compound 7 in Huh7 cells lower than in human hepatocytes ([^14C]-Compound 1): 88% |
